Laboratory results reported in article PMC9029089, “1,5-Disubstituted Acylated 2-Amino-4,5-dihydroimidazoles as a New Class of Retinoic Acid Receptor–Related Orphan Receptor (ROR) Inhibitors” (International Journal of Molecular Sciences, 2022).
Read-outs that look alike come from different tables or passages of the source.

How the values were obtained:
Format in all cases: cell-based
RORα = target: T1, RORα (Homo sapiens, UniProt P35398); test: Gal4-RORα-LBD UAS-luciferase reporter assay in TRex-CHO-K1 cells (doxycycline-stimulated); details: individual controls of library 1295, second confirmatory dose response, Figure 2
T1 construct: hRORα (Pro-211-end); expressed in transfected cells
T1 sequence (P35398 266-523): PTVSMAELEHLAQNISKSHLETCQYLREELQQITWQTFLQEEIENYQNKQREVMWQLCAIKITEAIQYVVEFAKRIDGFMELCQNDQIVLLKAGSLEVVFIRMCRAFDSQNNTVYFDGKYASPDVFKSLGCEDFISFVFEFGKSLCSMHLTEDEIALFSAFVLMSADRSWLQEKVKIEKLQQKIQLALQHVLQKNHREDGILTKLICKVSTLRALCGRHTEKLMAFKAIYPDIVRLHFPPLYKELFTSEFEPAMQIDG
Excerpt: (§1) The Gal4-DBD-ROR-LBD fusion proteins were subcloned in the pcDNA4/TO expression vector (Thermo Scientific) and transfected into TRex-CHO-K1 cells (Thermo Scientific) for tetracycline-controlled expression of the corresponding ROR proteins. Transfected cells were selected with hygromycin and Zeocin and individual clones for each of the Gal4-RORγ, Gal4-RORα, and Gal4-RORβ cell lines were isolated using a standard serial dilution protocol. Clones with the highest doxycycline-dependent stimulation of luciferase activity were selected for all functional experiments.
(§2) For screening FIU libraries, cells were resuspended in Ham’s F-12 assay medium containing 2% charcoal-treated FBS and no selection drugs. […] Cells were allowed to attach for 2 h, followed by compound treatment and stimulation with 20 ng/mL doxycycline for an additional 16–20 h. Appropriate solvent controls, negative controls with no doxycycline, and blanks with no cells were included in every plate. Prior to measuring luciferase activity, 6 µL of 0.15 mg/mL resazurin (Cayman Chemical) in PBS were added and cells were incubated for 1 h at 37 °C. Fluorescence intensity was detected at 545 nm excitation/590 nm emission using a CLARIOstar reader (BMGLabtech) as a measure of cell viability, to identify any potential cytotoxic effect of test compounds and mixtures.
(§3) Luminescence was normalized by the fluorescence intensity and the percentage of inhibition was calculated with respect to control cells stimulated with doxycycline in the presence of solvent control (0.1% DMF). All primary screens with individual compounds were performed in triplicate with a final concentration of 5 µg/mL. […] IC50 values were calculated using GraphPrism (GraphPad software).

RORγ [1] = target: T2, RORγ (Mus musculus, UniProt P51450); test: Gal4-RORγ-LBD UAS-luciferase reporter assay in TRex-CHO-K1 cells (doxycycline-stimulated); details: for IC50: individual controls of library 1295, second confirmatory dose response, Figure 2
T2 construct: mRORγ (Pro-261-end); expressed in transfected cells
T2 sequence (P51450 261-516 limits assumed): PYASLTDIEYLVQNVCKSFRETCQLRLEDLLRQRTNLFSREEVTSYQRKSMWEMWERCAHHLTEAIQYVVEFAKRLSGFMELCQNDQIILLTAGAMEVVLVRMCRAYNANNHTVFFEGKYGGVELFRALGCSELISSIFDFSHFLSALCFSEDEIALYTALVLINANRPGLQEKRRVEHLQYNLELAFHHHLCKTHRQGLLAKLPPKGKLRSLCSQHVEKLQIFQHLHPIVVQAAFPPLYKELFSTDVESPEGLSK
Excerpt: as §1, §2, §3

RORβ = target: T3, RORβ (Rattus norvegicus, UniProt P45446); test: Gal4-RORβ-LBD UAS-luciferase reporter assay in TRex-CHO-K1 cells (doxycycline-stimulated); details: IC50 (μM) (N=4) RORβ, individual controls of library 1295, second confirmatory dose response, Figure 2
T3 construct: rRORβ (Pro 205-end); expressed in transfected cells
T3 sequence (P45446 205-459 isoform P45446-1): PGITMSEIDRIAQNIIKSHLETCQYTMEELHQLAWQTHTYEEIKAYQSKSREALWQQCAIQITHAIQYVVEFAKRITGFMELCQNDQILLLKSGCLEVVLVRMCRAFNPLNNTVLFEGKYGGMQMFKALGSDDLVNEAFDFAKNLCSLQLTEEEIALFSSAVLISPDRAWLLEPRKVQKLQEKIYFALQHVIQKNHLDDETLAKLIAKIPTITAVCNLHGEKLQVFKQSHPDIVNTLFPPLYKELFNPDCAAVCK
Excerpt: To investigate the transcriptional activity of all three RORs, we generated stable cell lines expressing an UAS-driven luciferase reporter together with the corresponding Gal4-DNA binding domain fused to the ligand binding domains (LBDs) of mRORγ (Pro-261-end), hRORα (Pro-211-end), or rRORβ (Pro 205-end). The Gal4-DBD-ROR-LBD fusion proteins were subcloned in the pcDNA4/TO expression vector (Thermo Scientific) and transfected into TRex-CHO-K1 cells (Thermo Scientific) for tetracycline-controlled expression of the corresponding ROR proteins. Transfected cells were selected with hygromycin and Zeocin and individual clones for each of the Gal4-RORγ, Gal4-RORα, and Gal4-RORβ cell lines were isolated using a standard serial dilution protocol. Clones with the highest doxycycline-dependent stimulation of luciferase activity were selected for all functional experiments. All cell lines were maintained in complete Ham’s F12 medium containing 10% fetal bovine serum (FBS), 10 µg/mL blasticidine, 100 µg/mL hygromycin, and 100 µg/mL Zeocin and were used within 2 months of culture without any loss of doxycycline-dependent stimulation of luciferase activity.
For screening FIU libraries, cells were resuspended in Ham’s F-12 assay medium containing 2% charcoal-treated FBS and no selection drugs. Ten thousand cells per well were seeded in 30 µL of assay medium in 384 white plates with clear bottom (Greiner). Cells were allowed to attach for 2 h, followed by compound treatment and stimulation with 20 ng/mL doxycycline for an additional 16–20 h. Appropriate solvent controls, negative controls with no doxycycline, and blanks with no cells were included in every plate. Prior to measuring luciferase activity, 6 µL of 0.15 mg/mL resazurin (Cayman Chemical) in PBS were added and cells were incubated for 1 h at 37 °C. Fluorescence intensity was detected at 545 nm excitation/590 nm emission using a CLARIOstar reader (BMGLabtech) as a measure of cell viability, to identify any potential cytotoxic effect of test compounds and mixtures. Following the resazurin assay, the medium was removed and 20 µL of BriteLite-Plus luciferase reagent (Perking Elmer) were added; luminescence was measured in a CLARIOstar reader using a 384 aperture spoon and a 0.1 sec measuring time interval.
as §3

RORγ [2] = target: T2, RORγ; test: Gal4-RORγ-LBD UAS-luciferase reporter assay in TRex-CHO-K1 cells (doxycycline-stimulated); details: library 2520, RORγ cells
[3] = T-REx-CHO-K1, read-out: % Inhibition RORγ 5 μg/ml
[4] = T-REx-CHO-K1, individual controls 1295.201-307, 5 μg/ml, triplicate, read-out: % Inhibition RORγ 5 μg/ml

| IC50 (RORα; IC50 (μM) (N=4) RORα) [µM] | IC50 (RORγ [1]; IC50 (μM) (N=4) RORγ) [µM] | inhibition at 5 µg/mL (RORγ [1]; [3]) [%] | IC50 (RORβ) [µM] | inhibition at 5 µg/mL (RORγ [1]; [4]) [%] | IC50 (RORγ [1]) [µM] | % Inhibition at 4 μM (N=3) (RORγ [2]) [%] | Compound | further results |
| --- | --- | --- | --- | --- | --- | --- | --- | --- |
| 7.4 ± 0.2 | 4.8 | 105 | 6.7 ± 0.3 | – | – | – | CC(CC(=O)NC1=NC[C@H](Cc2ccccc2)N1CCc1ccccc1)c1ccccc1 (stereo partly shown) [1295.274] | selectivity towards RORγ over RORα and RORβ (RORγ [1]; from IC50 values in reporter cells): slightly more selective than RORα/β |
| – | – | – | 10.8 ± 0.4 | 94.7 | 10 ± 1.5 | – | CC(C)(C)C(=O)NC1=NC[C@H](Cc2ccccc2)N1CCc1ccccc1 [1295.298] | IC50 (RORα): 9.6 ± 0.3 µM |
| 10.3 ± 3.7 | – | – | 10.4 ± 0.7 | 82.8 | 6.6 ± 1.4 | – | O=C(CCC1CCCCC1)NC1=NC[C@H](Cc2ccccc2)N1CCc1ccccc1 [1295.305] | – |
| 9.7 ± 1.6 | 9.5 ± 2.6 | 97.8 | 9.4 ± 0.6 | – | – | – | CC1CCC(C(=O)NC2=NC[C@H](Cc3ccccc3)N2CCc2ccccc2)CC1 (stereo partly shown) [1295.306] | – |
| 8.9 ± 0.4 | 5.8 ± 0.4 | 101 | 7.6 ± 0.3 | – | – | – | O=C(CC1CC2CCC1C2)NC1=NC[C@H](Cc2ccccc2)N1CCc1ccccc1 (stereo partly shown) [1295.307] | – |

The remaining lines, values behind:

| Compound | IC50 (RORα; IC50 (μM) (N=4) RORα) [µM] | IC50 (RORγ [1]; IC50 (μM) (N=4) RORγ) [µM] | inhibition at 5 µg/mL (RORγ [1]; [3]) [%] | IC50 (RORβ) [µM] | inhibition at 5 µg/mL (RORγ [1]; [4]) [%] | IC50 (RORγ [1]) [µM] | % Inhibition at 4 μM (N=3) (RORγ [2]) [%] | further results |
| --- | --- | --- | --- | --- | --- | --- | --- | --- |
| O=C(Cc1ccccc1)NC1=NC[C@H](Cc2ccccc2)N1CCC1CC2CCC1C2 (stereo partly shown) [1295.270] | 9 ± 0.2 | 5.9 ± 3.3 | 84.6 | 9.3 ± 4.9 | – | – | – | – |
| O=C(NC1=NC[C@H](Cc2ccccc2)N1CCc1ccccc1)C1(c2ccccc2)CC1 [1295.272] | – | – | – | 14.2 ± 3.6 | 96 | 8 ± 1 | – | IC50 (RORα): 9.8 ± 0.5 µM |
| O=C(CCc1ccccc1)NC1=NC[C@H](Cc2ccccc2)N1CCc1ccccc1 [1295.289] | 12.7 ± 0.4 | – | – | 12.8 ± 2.7 | 83.1 | 7 ± 2.3 | – | – |
| O=C(CC1CCCCC1)NC1=NC[C@H](Cc2ccccc2)N1CCc1ccccc1 [1295.299] | 14.1 ± 1.6 | 8.4 ± 1.5 | 89.6 | 12.7 ± 4.2 | – | – | – | – |
| O=C(CCCC1CCCCC1)NC1=NC[C@H](Cc2ccccc2)N1CCc1ccccc1 [1295.300] | 10.2 ± 0.4 | – | – | 12.3 ± 0.8 | 82.8 | 8.7 ± 2 | – | – |
| COc1ccc(CC(=O)NC2=NC[C@H](Cc3ccc4ccccc4c3)N2CC2CCCCC2)cc1 [2520.06] | – | – | – | – | – | – | -56.4 | – |
| CC(C)C(=O)NC1=NC[C@H](Cc2ccc3ccccc3c2)N1CC1CCCCC1 [2520.12] | – | – | – | – | – | – | 30.4 | – |
| CC[C@H](C)[C@H]1CN=C(NC(=O)Cc2ccc(OC)cc2)N1CC1CCCCC1 [2520.18] | – | – | – | – | – | – | 26.2 | – |
| COc1ccc(CC(=O)NC2=NC[C@H](Cc3ccccc3)N2CC2CCCCC2)cc1 [2520.30] | – | – | – | – | – | – | -4.8 | – |
| CC(C)C(=O)NC1=NC[C@H](Cc2ccccc2)N1CC1CCCCC1 [2520.36] | – | – | – | – | – | – | -5.4 | – |
